Results taken from PubChem BioAssay (NCI).
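Dose response: 5 concentrations. Exposure: 48 h. Format: 96-well plates. Endpoint: linear interpolation; highest concentration if not reached. TGI marks complete inhibition of growth.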

Tests used:
Assay in all cases: growth of human tumour cells (NCI), 48 h
[1] = system: HCC-2998 colon
[2] = system: HCT-15 colon
[3] = system: HS 578T breast
[4] = system: HT29 colon
[5] = system: IGROV1 ovarian
[6] = system: K-562 leukemia
[7] = system: LOX IMVI melanoma
[8] = system: M14 melanoma
[9] = system: NCI-H460 lung
[10] = system: SK-MEL-5 melanoma

SMILES | TGI [1] [µM] | TGI [2] [µM] | TGI [3] [µM] | TGI [4] [µM] | TGI [5] [µM] | TGI [6] [µM] | TGI [7] [µM] | TGI [8] [µM] | TGI [9] [µM] | TGI [10] [µM]
CCOC(=O)C1CCC(=O)N1C(=O)c1ccccc1Cl (stereo not given) | > 100 | > 100 | > 100 | > 100 | > 100 | > 100 | > 100 | > 100 | > 100 | > 100
CN(C)c1ccc(Cc2cc3c(O)ccc(O)c3cc(Cc3ccc(N(C)C)cc3)c2=O)cc1 | 64 | 58 | 97.9 | 37.1 | 40.2 | 10.6 | 40.7 | 34.2 | > 100 | 39.3
O=C(/C=C/c1ccc2c(c1)OCO2)Cc1nc2ccccc2[nH]c1=O | 86.8 | > 100 | 40 | > 100 | > 100 | > 100 | > 100 | > 100 | > 100 | > 100
COc1ccc(Oc2cnn(C(Br)(Br)C(C)=O)c(=O)c2Br)cc1 | 30.6 | 39.8 | > 71.6 | 48.4 | 42.8 | 16.9 | 24.4 | 30.6 | 37.1 | 30
COC1C(O)C(O[C@H]2CC[C@@]3(C)C(CC[C@@H]4[C@@H]3CC[C@]3(C)[C@@H](C(C)OC5OC(CO)C(O)C(O)C5O)CC[C@]43O)C2)OC(C)C1OC1OC(CO)C(O)C(O)C1O (stereo not given in full) | > 100 | > 100 | > 100 | > 100 | > 100 | > 100 | > 100 | > 100 | > 100 | > 100
CCOC(=O)C1=CC(C)(C(=O)OCC)Nc2c(nc(N)[nH]c2=O)N1 (stereo not given) | > 10 | > 10 | > 10 | > 10 | > 10 | > 10 | > 10 | > 10 | > 10 | > 10
CCN1C(=O)C(=C/C=C/c2ccc(N(CC)CC)cc2)C(=O)N(CC)C1=S | > 100 | > 100 | > 100 | > 100 | > 100 | > 100 | > 100 | > 100 | > 100 | > 100
COc1ccc2c(c1)c(=O)c1c(NCCNCCO)ccc3c(=O)n(CCN(C)C)c(=O)n2c31 | 0.234 | 6.39 | 0.581 | 0.425 | 1.46 | 0.333 | 1.11 | 1.86 | 0.266 | 0.598
Nc1ccc(-c2nn3c(COc4ccc(Cl)cc4)nnc3s2)cc1 | > 100 | > 100 | > 100 | > 100 | > 100 | > 100 | > 100 | > 100 | > 100 | > 100
O=C1C=CC(=O)C(CNc2ccc(C(=O)OCc3ccccc3)cc2)=C1 | 31.6 | 9.1 | 55.4 | 31.8 | 12.6 | > 100 | 17.8 | 20.8 | 38.9 | 11.6
O=C(CC(=O)Nc1ccccc1)NNC(c1cc(N=Nc2ccc(Br)cc2)ccc1O)P(O)O (stereo not given) | > 10 | > 10 | > 10 | > 10 | > 10 | > 10 | > 10 | 3.84 | > 10 | > 10
Clc1nncc2sc(-c3ccccc3)nc12 | > 45.7 | 36.4 | 64.7 | 68.5 | 40.3 | > 100 | 50.2 | 52.3 | > 57.7 | 46.3
COc1ccc(N2C(=O)C3c4[nH]c5ccccc5c4C4CCCCCCCCCC4C3C2=O)cc1 (stereo not given) | > 10 | > 10 | > 10 | > 10 | > 10 | > 10 | > 10 | > 10 | > 10 | > 10
CCOC(=O)c1sc2ncnc(N)c2c1C | > 100 | > 100 | > 100 | > 100 | > 100 | > 100 | > 100 | > 100 | > 100 | > 100
O=S1(=O)c2cnccc2NC(=NCc2ccccc2)N1c1ccccc1 | > 100 | > 100 | > 100 | > 100 | > 100 | > 100 | > 100 | > 100 | > 100 | > 100
